Assays:
[1] = system: common (oilseed) sunflower; assay: Test C pre-/postemergence herbicide test; assay type: in vivo, Helianthus annuus; conditions: for Plant response rating (0 = no effect, 100 = complete control), Sunflower: 125 g ai/ha
Summary of the method: (§1)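 Pre/post spray; non-phytotoxic solvent + surfactant. Post-timing 1–4 leaves, 2–18 cm. Read-out: visual % control vs untreated, day 12–14, greenhouse.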

pigweed = assay: Test C pre-/postemergence herbicide test; assay type: in vivo, Amaranthus retroflexus
Summary of the method: as §1

giant foxtail = assay: Test C pre-/postemergence herbicide test; assay type: in vivo, Setaria faberi
Summary of the method: as §1

kochia = assay: Test C pre-/postemergence herbicide test; assay type: in vivo, Kochia scoparia
Summary of the method: as §1

barnyardgrass = assay: Test C flooded paddy test; assay type: in vivo, Echinochloa crus-galli
Summary of the method: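 Ratings (0 = no effect, 100 = complete control) come from visual comparison with untreated plants after 12 to 14 days in the greenhouse. Treatment was postemergence at the 1- to 4-leaf stage (2–18 cm), or at the 2-leaf stage for the flooded paddy barnyardgrass.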

morningglory = assay: Test C pre-/postemergence herbicide test; assay type: in vivo, Ipomoea coccinea; design: key to Plant response rating, Morningglory: 0 = no effect, 100 = complete control
Summary of the method: as §1

woolly cupgrass = assay: Test C pre-/postemergence herbicide test; assay type: in vivo, Eriochloa villosa
Summary of the method: as §1

eastern black nightshade = assay: Test C pre-/postemergence herbicide test; assay type: in vivo, Solanum ptycanthum
Summary of the method: as §1

[2] = 62 g ai/ha, preemergence, scale 0 to 100
[3] = 250 g ai/ha, scale 0-100, preemergence
[4] = 500 g ai/ha, scale 0 to 100 (0 no effect, 100 complete control), visual, 12 to 14 days, preemergence
[5] = 62 g ai/ha, scale 0 to 100 (0 no effect, 100 complete control)
[6] = 125 g ai/ha, scale 0 to 100 (0 no effect, 100 complete control)
[7] = 250 g ai/ha, scale of 0 to 100, 0 is no effect, 100 is complete control
[8] = 500 g ai/ha, visual rating after 12 to 14 days, scale 0 to 100 (0 no effect, 100 complete control)

CCNC(=O)c1ccc(F)c(NC(=O)C2CN(C(C)(C)C)N=C2CC)c1 (centres unmarked) [Compound 336, 1-(1,1-dimethylethyl)-3-ethyl-N-[5-[(ethylamino)carbonyl]-2-fluorophenyl]-4,5-dihydro-1H-pyrazole-4-carboxamide]
pest or weed control at 62 g/ha ([1]; Helianthus annuus, pre-emergence, 62 g ai/ha, preemergence, scale 0 to 100, read-out: Plant response rating, Sunflower): 0% | pest or weed control at 250 g/ha ([1]; Helianthus annuus, pre-emergence, 250 g ai/ha, scale 0-100, read-out: Plant response rating, Sunflower): 30% | pest or weed control at 500 g/ha ([1]; Helianthus annuus, pre-emergence, 500 g ai/ha, scale 0 to 100 (0 no effect, 100 complete control), visual, 12 to 14 days, read-out: Plant response rating, Sunflower): 45% | pest or weed control at 62 g/ha (pigweed; Amaranthus retroflexus, pre-emergence, 62 g ai/ha, preemergence, scale 0 to 100, read-out: Plant response rating, Pigweed): 100% | pest or weed control at 125 g/ha (pigweed; Amaranthus retroflexus, pre-emergence, 125 g ai/ha, scale 0 (no effect) to 100 (complete control), visual, 12 to 14 days, read-out: Plant response rating, Pigweed): 100% | pest or weed control at 250 g/ha (pigweed; Amaranthus retroflexus, pre-emergence, 250 g ai/ha, scale 0-100, read-out: Plant response rating, Pigweed): 100% | pest or weed control at 500 g/ha (pigweed; Amaranthus retroflexus, pre-emergence, 500 g ai/ha, scale 0 to 100 (0 no effect, 100 complete control), visual, 12 to 14 days, read-out: Plant response rating, Pigweed): 100% | pest or weed control at 62 g/ha (giant foxtail; Setaria faberi, pre-emergence, 312 h, 62 g ai/ha, preemergence, scale 0 to 100, read-out: Plant response rating, Foxtail, Giant): 0% | pest or weed control at 125 g/ha (giant foxtail; Setaria faberi, pre-emergence, 312 h, 125 g ai/ha, scale 0 (no effect) to 100 (complete control), visual, 12 to 14 days, read-out: Plant response rating, Foxtail, Giant): 5% | pest or weed control at 250 g/ha (giant foxtail; Setaria faberi, pre-emergence, 312 h, 250 g ai/ha, scale 0-100, read-out: Plant response rating, Foxtail, Giant): 90% | pest or weed control at 500 g/ha (giant foxtail; Setaria faberi, pre-emergence, 312 h, 500 g ai/ha, scale 0 to 100 (0 no effect, 100 complete control), visual, 12 to 14 days, read-out: Plant response rating, Foxtail, Giant): 90% | pest or weed control at 62 g/ha (kochia; Bassia scoparia, pre-emergence, 62 g ai/ha, preemergence, scale 0 to 100, read-out: Plant response rating, Kochia): 5% | pest or weed control at 125 g/ha (kochia; Bassia scoparia, pre-emergence, 125 g ai/ha, scale 0 (no effect) to 100 (complete control), visual, 12 to 14 days, read-out: Plant response rating, Kochia): 70% | pest or weed control at 250 g/ha (kochia; Bassia scoparia, pre-emergence, 250 g ai/ha, scale 0-100, read-out: Plant response rating, Kochia): 100% | pest or weed control at 500 g/ha (kochia; Bassia scoparia, pre-emergence, 500 g ai/ha, scale 0 to 100 (0 no effect, 100 complete control), visual, 12 to 14 days, read-out: Plant response rating, Kochia): 100% | pest or weed control at 62 g/ha (barnyardgrass; Echinochloa crus-galli, 62 g ai/ha, scale 0 to 100 (0 no effect, 100 complete control), read-out: Barnyardgrass plant response rating): 0% | pest or weed control at 125 g/ha (barnyardgrass; Echinochloa crus-galli, 125 g ai/ha, scale 0 to 100 (0 no effect, 100 complete control), read-out: Barnyardgrass plant response rating): 0% | pest or weed control at 250 g/ha (barnyardgrass; Echinochloa crus-galli, 250 g ai/ha, scale of 0 to 100, 0 is no effect, 100 is complete control, read-out: Barnyardgrass plant response rating): 60% | pest or weed control at 500 g/ha (barnyardgrass; Echinochloa crus-galli, 500 g ai/ha, visual rating after 12 to 14 days, scale 0 to 100 (0 no effect, 100 complete control), read-out: Plant response rating, Barnyardgrass): 80% | pest or weed control at 62 g/ha (morningglory; Ipomoea, pre-emergence, 62 g ai/ha, preemergence, scale 0 to 100, read-out: Plant response rating, Morningglory): 5% | pest or weed control at 125 g/ha (morningglory; Ipomoea, pre-emergence, 125 g ai/ha, scale 0 (no effect) to 100 (complete control), visual, 12 to 14 days, read-out: Plant response rating, Morningglory): 70% | pest or weed control at 250 g/ha (morningglory; Ipomoea, pre-emergence, 250 g ai/ha, scale 0-100, read-out: Plant response rating, Morningglory): 100% | pest or weed control at 500 g/ha (morningglory; Ipomoea, pre-emergence, 500 g ai/ha, scale 0 to 100 (0 no effect, 100 complete control), visual, 12 to 14 days, read-out: Plant response rating, Morningglory): 100% | pest or weed control at 62 g/ha (woolly cupgrass; Eriochloa villosa, pre-emergence, 312 h, 62 g ai/ha, preemergence, scale 0 to 100, read-out: Plant response rating, Cupgrass, Woolly): 5% | pest or weed control at 125 g/ha (woolly cupgrass; Eriochloa villosa, pre-emergence, 312 h, 125 g ai/ha, scale 0 (no effect) to 100 (complete control), visual, 12 to 14 days, read-out: Plant response rating, Cupgrass, Woolly): 10% | pest or weed control at 250 g/ha (woolly cupgrass; Eriochloa villosa, pre-emergence, 312 h, 250 g ai/ha, scale 0-100, read-out: Plant response rating, Cupgrass, Woolly): 60% | pest or weed control at 500 g/ha (woolly cupgrass; Eriochloa villosa, pre-emergence, 312 h, 500 g ai/ha, scale 0 to 100 (0 no effect, 100 complete control), visual, 12 to 14 days, read-out: Plant response rating, Cupgrass, Woolly): 85% | pest or weed control at 62 g/ha (eastern black nightshade; pre-emergence, 62 g ai/ha, preemergence, scale 0 to 100, read-out: Plant response rating, Nightshade): 85% | pest or weed control at 125 g/ha (eastern black nightshade; pre-emergence, 125 g ai/ha, scale 0 (no effect) to 100 (complete control), visual, 12 to 14 days, read-out: Plant response rating, Nightshade): 95% | pest or weed control at 250 g/ha (eastern black nightshade; pre-emergence, 250 g ai/ha, scale 0-100, read-out: Plant response rating, Nightshade): 100% | pest or weed control at 500 g/ha (eastern black nightshade; pre-emergence, 500 g ai/ha, scale 0 to 100 (0 no effect, 100 complete control), visual, 12 to 14 days, read-out: Plant response rating, Nightshade): 100%

CCC1=NN(C(C)(C)C)CC1C(=O)Nc1cc(C(=O)N2CCCC2)ccc1F (racemic) [Compound 341]
Plant response rating, Sunflower [1, 2]: 0 | Plant response rating (0 = no effect, 100 = complete control), Sunflower ([1]; preemergence): 0 | Plant response rating, Sunflower [1, 3]: 50 | Plant response rating, Sunflower [1, 4]: 100 | Plant response rating, Pigweed (pigweed; [2]): 95 | Plant response rating (0 = no effect, 100 = complete control), Pigweed (pigweed; 125 g ai/ha, preemergence): 95 | Plant response rating, Pigweed (pigweed; [3]): 100 | Plant response rating, Pigweed (pigweed; [4]): 100 | Plant response rating, Foxtail, Giant (giant foxtail; [2]): 0 | Plant response rating (0 = no effect, 100 = complete control), Foxtail, Giant (giant foxtail; 125 g ai/ha, preemergence): 50 | Plant response rating, Foxtail, Giant (giant foxtail; [3]): 55 | Plant response rating, Foxtail, Giant (giant foxtail; [4]): 80 | Plant response rating, Kochia (kochia; [2]): 80 | Plant response rating (0 = no effect, 100 = complete control), Kochia (kochia; 125 g ai/ha, preemergence): 100 | Plant response rating, Kochia (kochia; [3]): 100 | Plant response rating, Kochia (kochia; [4]): 100 | Barnyardgrass plant response rating (barnyardgrass; [5]): 30 | Barnyardgrass plant response rating (barnyardgrass; [6]): 30 | Barnyardgrass plant response rating (barnyardgrass; [7]): 50 | Plant response rating, Barnyardgrass (barnyardgrass; [8]): 60 | Plant response rating, Morningglory (morningglory; [2]): 0 | Plant response rating (0 = no effect, 100 = complete control), Morningglory (morningglory; 125 g ai/ha, preemergence): 5 | Plant response rating, Morningglory (morningglory; [3]): 5 | Plant response rating, Morningglory (morningglory; [4]): 50 | Plant response rating, Cupgrass, Woolly (woolly cupgrass; [2]): 80 | Plant response rating (0 = no effect, 100 = complete control), Cupgrass, Woolly (woolly cupgrass; 125 g ai/ha, preemergence): 80 | Plant response rating, Cupgrass, Woolly (woolly cupgrass; [3]): 100 | Plant response rating, Cupgrass, Woolly (woolly cupgrass; [4]): 100 | Plant response rating, Nightshade (eastern black nightshade; [2]): 50 | Plant response rating (0 = no effect, 100 = complete control), Nightshade (eastern black nightshade; 125 g ai/ha, preemergence): 55 | Plant response rating, Nightshade (eastern black nightshade; [3]): 100 | Plant response rating, Nightshade (eastern black nightshade; [4]): 100

Cc1nn(C(C)(C)C)nc1C(=O)Nc1cccc(C(=O)N(C)C)c1 [Compound 391]
Plant response rating, Sunflower [1, 2]: 50 | Plant response rating (0 = no effect, 100 = complete control), Sunflower ([1]; preemergence): 95 | Plant response rating, Sunflower [1, 3]: 100 | Plant response rating, Sunflower [1, 4]: 100 | Plant response rating, Pigweed (pigweed; [2]): 95 | Plant response rating (0 = no effect, 100 = complete control), Pigweed (pigweed; 125 g ai/ha, preemergence): 100 | Plant response rating, Pigweed (pigweed; [3]): 100 | Plant response rating, Pigweed (pigweed; [4]): 100 | Plant response rating, Foxtail, Giant (giant foxtail; [2]): 85 | Plant response rating (0 = no effect, 100 = complete control), Foxtail, Giant (giant foxtail; 125 g ai/ha, preemergence): 100 | Plant response rating, Foxtail, Giant (giant foxtail; [3]): 100 | Plant response rating, Foxtail, Giant (giant foxtail; [4]): 100 | Plant response rating, Kochia (kochia; [2]): 100 | Plant response rating (0 = no effect, 100 = complete control), Kochia (kochia; 125 g ai/ha, preemergence): 100 | Plant response rating, Kochia (kochia; [3]): 100 | Plant response rating, Kochia (kochia; [4]): 100 | Barnyardgrass plant response rating (barnyardgrass; [5]): 55 | Barnyardgrass plant response rating (barnyardgrass; [6]): 85 | Barnyardgrass plant response rating (barnyardgrass; [7]): 90 | Plant response rating, Barnyardgrass (barnyardgrass; [8]): 95 | Plant response rating, Morningglory (morningglory; [2]): 100 | Plant response rating (0 = no effect, 100 = complete control), Morningglory (morningglory; 125 g ai/ha, preemergence): 100 | Plant response rating, Morningglory (morningglory; [3]): 100 | Plant response rating, Morningglory (morningglory; [4]): 100 | Plant response rating, Cupgrass, Woolly (woolly cupgrass; [2]): 70 | Plant response rating (0 = no effect, 100 = complete control), Cupgrass, Woolly (woolly cupgrass; 125 g ai/ha, preemergence): 75 | Plant response rating, Cupgrass, Woolly (woolly cupgrass; [3]): 80 | Plant response rating, Cupgrass, Woolly (woolly cupgrass; [4]): 100 | Plant response rating, Nightshade (eastern black nightshade; [2]): 90 | Plant response rating (0 = no effect, 100 = complete control), Nightshade (eastern black nightshade; 125 g ai/ha, preemergence): 95 | Plant response rating, Nightshade (eastern black nightshade; [3]): 95 | Plant response rating, Nightshade (eastern black nightshade; [4]): 95
